Like-named read-outs stand apart in the source and are kept apart here.
What was measured:
[1] = system: HeLa cells; experiment: MTT cytotoxicity assay, HeLa; details: Homo sapiens
[2] = system: HCT-116 cells; experiment: MTT cytotoxicity assay, HCT-116; details: Homo sapiens
[3] = system: MCF-7 cells; experiment: MTT cytotoxicity assay, MCF-7; details: Homo sapiens
[4] = system: HepG-2 cells; experiment: MTT cytotoxicity assay, HepG-2; assay type: cell-based; details: Homo sapiens
[5] = system: HepG-2, HCT-116, MCF-7 and HeLa cells; experiment: MTT cytotoxicity assay, all four cancer cell lines together; assay type: cell-based; details: for Cytotoxic activity category, all four tested cancer cell lines: category in words by IC50, HepG-2, HCT-116, MCF-7, HeLa
[6] = target: Topoisomerase II (Topo II); details: read-out: Topo II IC50; cited from earlier work
[7] = system: Topo II; details: read-out: Topo II IC50; cited from earlier work
[8] = system: Topo IIB; details: read-out: Topo IIB IC50; cited from earlier work
[9] = target: EGFR, VEGFR-2, and Topo II; experiment: In vitro enzyme inhibition assays, three enzymes together; assay type: biochemical; details: read-out: IC50 range on EGFR, VEGFR-2, and Topo II; range over the three enzymes
[10] = system: WI-38 cell line; experiment: In vitro cytotoxicity against normal WI-38 cell line; assay type: cell-based; details: Homo sapiens, WI-38, read-out: Normal cells IC50 WI-38
[11] = target: VEGFR-2 (Homo sapiens, UniProt P35968); experiment: In vitro VEGFR-2 enzyme inhibition assay; assay type: biochemical
[12] = system: HepG-2 cells; experiment: Flow cytometry cell cycle analysis; assay type: cell-based; details: HepG-2, PI staining
[13] = target: Topo II; experiment: In vitro Topo II enzyme inhibition assay; assay type: biochemical; details: read-out: Topo II IC50; mean ± SD
[14] = system: HepG-2 cells; experiment: Annexin V-FITC/PI apoptosis assay; assay type: cell-based; details: HepG-2, 24 h
[15] = target: EGFR (Homo sapiens, UniProt P00533); experiment: biochemical; assay type: biochemical
[16] = 48 h, read-out: In vitro Cytotoxicity IC50 HeLa
[17] = HCT-116, 48 h, read-out: In vitro Cytotoxicity IC50 HCT-116
[18] = MCF7, 48 h, read-out: In vitro Cytotoxicity IC50 MCF-7
[19] = HepG2, 48 h, read-out: In vitro Cytotoxicity IC50 HepG-2
[20] = read-out: Cytotoxic activity category, HeLa
[21] = HCT-116, read-out: Cytotoxic activity category, HCT-116
[22] = MCF7, read-out: Cytotoxic activity category, MCF-7
[23] = HepG2, read-out: Cytotoxic activity category, HepG-2
[24] = read-out: IC50 range over the four cancer cell lines
[25] = read-out: Cytotoxic activity category, all four tested cancer cell lines

EGFR, sequence (P00533 25-1210): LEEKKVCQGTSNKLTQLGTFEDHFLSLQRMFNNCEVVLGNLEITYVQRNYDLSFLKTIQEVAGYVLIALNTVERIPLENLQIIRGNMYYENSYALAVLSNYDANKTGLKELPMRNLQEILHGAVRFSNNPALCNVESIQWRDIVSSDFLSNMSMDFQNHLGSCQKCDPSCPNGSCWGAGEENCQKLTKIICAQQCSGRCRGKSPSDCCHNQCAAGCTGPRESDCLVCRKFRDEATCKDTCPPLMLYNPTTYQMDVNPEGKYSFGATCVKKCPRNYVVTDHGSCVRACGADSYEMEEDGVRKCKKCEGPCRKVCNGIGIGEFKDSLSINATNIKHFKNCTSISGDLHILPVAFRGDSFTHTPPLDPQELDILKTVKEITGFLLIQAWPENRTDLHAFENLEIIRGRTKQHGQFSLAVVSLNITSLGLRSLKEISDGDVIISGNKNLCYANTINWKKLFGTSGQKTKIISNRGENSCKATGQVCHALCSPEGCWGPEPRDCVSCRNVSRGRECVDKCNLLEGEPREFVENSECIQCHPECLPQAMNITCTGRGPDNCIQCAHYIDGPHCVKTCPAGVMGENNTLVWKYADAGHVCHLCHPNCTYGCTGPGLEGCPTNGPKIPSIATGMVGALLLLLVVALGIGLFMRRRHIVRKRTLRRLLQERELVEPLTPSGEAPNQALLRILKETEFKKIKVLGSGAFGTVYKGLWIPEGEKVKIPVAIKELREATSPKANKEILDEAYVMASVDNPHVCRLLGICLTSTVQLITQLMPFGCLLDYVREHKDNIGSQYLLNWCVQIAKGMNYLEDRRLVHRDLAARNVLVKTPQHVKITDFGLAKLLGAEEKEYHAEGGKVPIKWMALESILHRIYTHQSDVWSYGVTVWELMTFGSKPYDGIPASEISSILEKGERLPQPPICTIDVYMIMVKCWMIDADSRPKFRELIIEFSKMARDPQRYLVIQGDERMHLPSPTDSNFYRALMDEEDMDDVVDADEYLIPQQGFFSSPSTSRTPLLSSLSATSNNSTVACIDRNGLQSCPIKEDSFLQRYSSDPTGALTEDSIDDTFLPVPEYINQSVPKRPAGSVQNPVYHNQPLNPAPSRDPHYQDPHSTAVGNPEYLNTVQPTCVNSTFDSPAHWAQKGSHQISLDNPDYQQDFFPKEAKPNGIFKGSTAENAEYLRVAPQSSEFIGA
VEGFR-2, sequence (P35968 20-1356): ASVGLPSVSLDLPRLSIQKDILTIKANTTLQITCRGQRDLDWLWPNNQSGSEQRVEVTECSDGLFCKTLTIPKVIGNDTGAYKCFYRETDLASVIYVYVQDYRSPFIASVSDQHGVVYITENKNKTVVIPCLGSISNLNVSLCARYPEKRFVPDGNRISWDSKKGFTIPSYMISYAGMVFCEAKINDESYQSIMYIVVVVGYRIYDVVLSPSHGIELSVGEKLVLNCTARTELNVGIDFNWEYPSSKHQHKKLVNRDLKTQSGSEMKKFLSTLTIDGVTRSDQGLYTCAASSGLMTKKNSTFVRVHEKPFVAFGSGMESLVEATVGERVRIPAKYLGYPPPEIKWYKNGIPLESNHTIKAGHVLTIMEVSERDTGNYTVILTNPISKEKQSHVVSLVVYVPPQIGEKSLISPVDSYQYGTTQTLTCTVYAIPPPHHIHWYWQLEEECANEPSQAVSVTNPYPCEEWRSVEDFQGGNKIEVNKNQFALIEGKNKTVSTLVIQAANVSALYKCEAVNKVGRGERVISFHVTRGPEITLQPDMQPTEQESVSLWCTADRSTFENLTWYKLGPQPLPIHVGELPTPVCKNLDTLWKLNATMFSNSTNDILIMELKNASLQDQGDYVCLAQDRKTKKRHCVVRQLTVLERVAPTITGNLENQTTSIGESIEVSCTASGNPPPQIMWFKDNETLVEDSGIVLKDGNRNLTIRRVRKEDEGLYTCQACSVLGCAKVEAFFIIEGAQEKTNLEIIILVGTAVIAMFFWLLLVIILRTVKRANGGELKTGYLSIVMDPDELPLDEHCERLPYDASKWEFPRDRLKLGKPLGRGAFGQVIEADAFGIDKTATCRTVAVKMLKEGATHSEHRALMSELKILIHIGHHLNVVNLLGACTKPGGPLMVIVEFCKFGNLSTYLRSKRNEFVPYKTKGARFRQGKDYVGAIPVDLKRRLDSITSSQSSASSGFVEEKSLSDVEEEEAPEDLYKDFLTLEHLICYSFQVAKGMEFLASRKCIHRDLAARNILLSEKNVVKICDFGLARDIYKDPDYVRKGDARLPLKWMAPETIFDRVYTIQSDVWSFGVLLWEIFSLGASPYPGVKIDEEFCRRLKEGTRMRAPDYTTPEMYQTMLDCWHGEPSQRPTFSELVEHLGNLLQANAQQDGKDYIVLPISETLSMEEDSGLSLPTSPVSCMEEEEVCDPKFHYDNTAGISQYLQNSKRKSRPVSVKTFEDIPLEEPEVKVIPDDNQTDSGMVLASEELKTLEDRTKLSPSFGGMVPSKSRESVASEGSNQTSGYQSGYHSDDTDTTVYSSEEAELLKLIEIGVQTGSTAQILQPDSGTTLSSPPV

Row | Molecule | IC50 [1, 16] | IC50 [2, 17] | IC50 [3, 18] | IC50 [4, 19] | other results
1 | COc1ccc(NC(=S)NNC(=O)c2nnn(Cc3nc4ccccc4[nH]3)c2C)cc1 [Compound 5g, 2-{1-[(1h-Benzo[d]imidazol-2-yl)methyl]-5-methyl-1H-1,2,3-triazole-4-carbonyl}-N-(4-methoxyphenyl)hydrazinecarbothioamide] | 8.7 ± 0.6 µM | 18.7 ± 1.5 µM | 9.39 ± 0.8 µM | 13.6 ± 1 µM | –
2 | Cc1c(C(=O)NNC(=O)Nc2cccc3ccccc23)nnn1Cc1nc2ccccc2[nH]1 [Compound 5c, 2-{1-[(1h-Benzo[d]imidazol-2-yl)methyl]-5-methyl-1H-1,2,3-triazole-4-carbonyl}-N-(naphthalen-1-yl)hydrazinecarboxamide] | 27.6 ± 2 µM | 59.2 ± 3.3 µM | 45.4 ± 2.9 µM | 67.4 ± 3.5 µM | Cytotoxic activity category, all four tested cancer cell lines [5]: weak to moderate
3 | CN1CCN(c2ccc3nc(-c4c(N)c5c(F)cccc5[nH]c4=O)[nH]c3c2)CC1 [Dovitinib] | – | – | – | – | IC50 [6]: 13 µM
4 | Cc1c(C(=O)NNC(=S)Nc2ccccc2)nnn1Cc1nc2ccccc2[nH]1 [Compound 5d, 2-{1-[(1h-Benzo[d]imidazol-2-yl)methyl]-5-methyl-1H-1,2,3-triazole-4-carbonyl}-N-phenylhydrazinecarbothioamide] | 12.4 ± 0.9 µM | 41.4 ± 2.8 µM | 30.8 ± 2.3 µM | 57.2 ± 3.2 µM | IC50 [1, 20]: 11 to 20 µM; IC50 [2, 21]: 21 to 50 µM; IC50 [3, 22]: 21 to 50 µM; IC50 [4, 23]: 51 to 100 µM
5 | COc1ccc(/C=N/NC(=O)c2nnn(Cc3nc4ccccc4[nH]3)c2C)cc1OC [Compound 6e, (E)-1-[(1H-Benzo[d]imidazol-2-yl)methyl]-N′-(3,4-dimethoxybenzylidene)-5-methyl-1H-1,2,3-triazole-4-carbohydrazide] | 29.1 ± 2.3 µM | 19.7 ± 1.7 µM | 23.7 ± 1.9 µM | 33.6 ± 2.3 µM | IC50 [1, 20]: 21 to 50 µM; IC50 [2, 21]: 11 to 20 µM; IC50 [3, 22]: 21 to 50 µM; IC50 [4, 23]: 21 to 50 µM
6 | 2-phenylthiomethylbenzimidazole [VI] | – | – | – | – | IC50 [7]: 17 µM
7 | Cc1c(C(=O)N/N=C/c2cccc([N+](=O)[O-])c2)nnn1Cc1nc2ccccc2[nH]1 [Compound 6d, (E)-1-[(1H-Benzo[d]imidazol-2-yl)methyl]-5-methyl-N′-(3-nitrobenzylidene)-1H-1,2,3-triazole-4-carbohydrazide] | 52.2 ± 3.1 µM | 36.5 ± 2.7 µM | 48.2 ± 3 µM | 71.5 ± 3.6 µM | –
8 | Cc1c(C(=O)NNC(=O)Nc2ccccc2)nnn1Cc1nc2ccccc2[nH]1 [Compound 5h, 2-{1-[(1h-Benzo[d]imidazol-2-yl)methyl]-5-methyl-1H-1,2,3-triazole-4-carbonyl}-N-phenylhydrazinecarboxamide] | 31.6 ± 2.3 µM | 54.8 ± 3 µM | 38 ± 2.6 µM | 42.1 ± 2.7 µM | Cytotoxic activity category, all four tested cancer cell lines [5]: weak to moderate
10 | COc1cccc2c1C(=O)c1c(O)c3c(c(O)c1C2=O)C[C@@](O)(C(=O)CO)C[C@@H]3O[C@H]1C[C@H](N)[C@H](O)[C@H](C)O1 [Dox, Doxorubicin, reference compound] | – | – | – | 4.5 ± 0.2 µM | IC50 [5, 24]: 4.17 to 5.57 µM; IC50 [8]: 0.83 µM
11 | Cc1c(C(=O)N/N=C/c2ccccc2)nnn1Cc1nc2ccccc2[nH]1 [Compound 6b, (E)-1-[(1H-Benzo[d]imidazol-2-yl)methyl]-N′-benzylidene-5-methyl-1H-1,2,3-triazole-4-carbohydrazide] | 61.2 ± 3.4 µM | 75.1 ± 3.8 µM | 57.6 ± 3.3 µM | 84.5 ± 4.1 µM | –
12 | Cc1c(C(=O)N/N=C/c2ccc(N(C)C)cc2)nnn1Cc1nc2ccccc2[nH]1 [Compound 6f, (E)-1-[(1H-Benzo[d]imidazol-2-yl)methyl]-N′-[4-(dimethylamino)benzylidene]-5-methyl-1H-1,2,3-triazole-4-carbohydrazide] | 22.8 ± 1.9 µM | 11.7 ± 0.9 µM | 14.7 ± 1.1 µM | 18.3 ± 1.5 µM | IC50 [1, 20]: 21 to 50 µM; IC50 [2, 21]: 11 to 20 µM; IC50 [3, 22]: 11 to 20 µM; IC50 [4, 23]: 11 to 20 µM
13 | COc1cc(/C=N/NC(=O)c2nnn(Cc3nc4ccccc4[nH]3)c2C)ccc1O [Compound 6g, (E)-1-[(1H-Benzo[d]imidazol-2-yl)methyl]-N′-(4-hydroxy-3-methoxybenzylidene)-5-methyl-1H-1,2,3-triazole-4-carbohydrazide] | 9.84 ± 0.7 µM | 3.34 ± 0.4 µM | 7.11 ± 0.5 µM | 10.9 ± 0.8 µM | IC50 [9]: 0.131 to 8.37 µM; IC50 [5, 25]: 1 to 10 µM; IC50 [5, 24]: 3.34 to 10.9 µM; IC50 [10]: 43.3 ± 2.6 µM; Activity relative to Sorafenib against VEGFR-2 [11]: 21%; Cell cycle distribution G0-G1 [12]: 38.91%; Cell cycle distribution G2/M [12]: 33.81%; Cell cycle distribution Pre-G1 [12]: 36.28%; Cell cycle distribution S [12]: 27.28%; IC50 [13]: 8.37 ± 0.49 µM; Apoptosis Early (Q4) [14]: 11.02%; Apoptosis Late (Q2) [14]: 19.85%; Apoptosis Total [14]: 30.87%; Necrosis (Q1) [14]: 5.41%; Activity relative to Gefitinib against EGFR [15]: ~40%; IC50 [15]: 0.131 ± 0.005 µM
14 | Cc1ccc(NC(=S)NNC(=O)c2nnn(Cc3nc4ccccc4[nH]3)c2C)cc1 [Compound 5f, 2-{1-[(1h-Benzo[d]imidazol-2-yl)methyl]-5-methyl-1H-1,2,3-triazole-4-carbonyl}-N-(p-tolyl)hydrazinecarbothioamide] | 58.1 ± 3.1 µM | 68.5 ± 3.7 µM | 64.1 ± 3.3 µM | 72.7 ± 3.8 µM | –
15 | Cc1c(C(=O)N/N=C/c2cccc(Br)c2)nnn1Cc1nc2ccccc2[nH]1 [Compound 6c, (E)-1-[(1H-Benzo[d]imidazol-2-yl)methyl]-N′-(3-bromobenzylidene)-5-methyl-1H-1,2,3-triazole-4-carbohydrazide] | 48.8 ± 2.8 µM | 63.6 ± 3.3 µM | 44.8 ± 2.9 µM | 56.3 ± 3.2 µM | –
16 | Cc1c(C(=O)N/N=C/c2ccc(Cl)cc2)nnn1Cc1nc2ccccc2[nH]1 [Compound 6a, (E)-1-[(1H-Benzo[d]imidazol-2-yl)methyl]-N′-(4-chlorobenzylidene)-5-methyl-1H-1,2,3-triazole-4-carbohydrazide] | 35.3 ± 2.5 µM | 28.2 ± 2.5 µM | 39.5 ± 2.6 µM | 47 ± 2.8 µM | IC50 [5, 25]: 21 to 50 µM; IC50 [5, 24]: 28.2 to 47 µM

Reference: paper PMC9858449 (Journal of Enzyme Inhibition and Medicinal Chemistry, 2023)
